Data as given in paper PMC6429214, “Design, Synthesis and Biological Evaluation of Isoxazole-Based CK1 Inhibitors Modified with Chiral Pyrrolidine Scaffolds” (Molecules, 2019).

Tests used:
Assay in all cases: 33PanQinase panel
Format in all cases: biochemical
[1] = molecular target: T1, S6K-beta (Homo sapiens, UniProt Q9UBS0); conditions: read-out: Residual Activity (%)
T1 construct: purchased ProQinase
Outline: (§1)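 Kinases were screened with the inhibitor at a single concentration of 1 µM. Activity was measured radiometrically with 33P, and each reaction mix contained 1% DMSO. Data are expressed as percentage residual activity compared with DMSO control.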

[2] = molecular target: T2, EIF2AK2 (Homo sapiens, UniProt P19525); conditions: EIF2AK2, 1 µM; read-out: Residual Activity (%)
T2 construct: purchased ProQinase
Outline: as §1

[3] = molecular target: T3, TSF1 (Homo sapiens, UniProt O75716); conditions: TSF1, 1 µM; read-out: Residual Activity (%)
T3 construct: purchased ProQinase
Outline: as §1

[4] = molecular target: T4, PDGFR-alpha (Homo sapiens, UniProt P16234); conditions: read-out: Residual Activity (%)
T4 construct: purchased ProQinase
Outline: as §1

[5] = molecular target: T5, TNK1 (Homo sapiens, UniProt Q13470); conditions: TNK1, 1 µM; read-out: Residual Activity (%)
T5 construct: purchased ProQinase
Outline: as §1

[6] = molecular target: T6, ERK7 (Homo sapiens, UniProt Q8TD08); conditions: ERK7, 1 µM; read-out: Residual Activity (%)
T6 construct: purchased ProQinase
Outline: as §1

[7] = molecular target: T7, WNK3 (Homo sapiens, UniProt Q9BYP7); conditions: WNK3, 1 µM; read-out: Residual Activity (%)
T7 construct: purchased ProQinase
Outline: as §1

[8] = molecular target: T8, RPS6KA4 (Homo sapiens, UniProt O75676); conditions: RPS6KA4, 1 µM; read-out: Residual Activity (%)
T8 construct: purchased ProQinase
Outline: as §1

[9] = molecular target: T9, ROCK1 (Homo sapiens, UniProt Q13464); conditions: ROCK1, 1 µM; read-out: Residual Activity (%)
T9 construct: purchased ProQinase
Outline: as §1

[10] = molecular target: T10, PYK2 (Homo sapiens, UniProt Q14289); conditions: PYK2, 1 µM; read-out: Residual Activity (%)
T10 construct: purchased ProQinase
Outline: as §1

[11] = molecular target: T11, PAK7 (Homo sapiens, UniProt Q9P286); conditions: PAK7, 1 µM; read-out: Residual Activity (%)
T11 construct: purchased ProQinase
Outline: as §1

[12] = molecular target: T12, CDK5/p25NCK (Homo sapiens, UniProt Q00535); conditions: read-out: Residual Activity (%)
T12 construct: purchased ProQinase
Outline: as §1

[13] = molecular target: T13, CAMK2B (Homo sapiens, UniProt Q13554); conditions: read-out: Residual Activity (%)
T13 construct: purchased ProQinase
Outline: as §1

[14] = molecular target: T14, CDK4/CycD1 (Homo sapiens, UniProt P11802); conditions: CDK4/CycD1, 1 µM; read-out: Residual Activity (%)
T14 construct: purchased ProQinase
Outline: as §1

[15] = molecular target: T15, CAMK1D (Homo sapiens, UniProt Q8IU85); conditions: read-out: Residual Activity (%)
T15 construct: purchased ProQinase
Outline: as §1

[16] = molecular target: T16, CAMKK1 (Homo sapiens, UniProt Q8N5S9); conditions: CAMKK1, 1 µM; read-out: Residual Activity (%)
T16 construct: purchased ProQinase
Outline: as §1

[17] = molecular target: T17, EIF2AK3 (Homo sapiens, UniProt Q9NZJ5); conditions: EIF2AK3, 1 µM; read-out: Residual Activity (%)
T17 construct: purchased ProQinase
Outline: as §1

[18] = molecular target: T18, STK33 (Homo sapiens, UniProt Q9BYT3); conditions: STK33, 1 µM; read-out: Residual Activity (%)
T18 construct: purchased ProQinase
Outline: as §1

[19] = molecular target: T19, WNK2 (Homo sapiens, UniProt Q9Y3S1); conditions: WNK2, 1 µM; read-out: Residual Activity (%)
T19 construct: purchased ProQinase
Outline: as §1

[20] = molecular target: T20, TGFB-R2 (Homo sapiens, UniProt P37173); conditions: TGFB-R2, 1 µM; read-out: Residual Activity (%)
T20 construct: purchased ProQinase
Outline: as §1

[21] = molecular target: T21, SNK (Homo sapiens, UniProt Q9NYY3); conditions: read-out: Residual Activity (%)
T21 construct: purchased ProQinase
Outline: as §1

[22] = molecular target: T22, IRAK4 (untagged) (Homo sapiens, UniProt Q9NWZ3); conditions: read-out: Residual Activity (%)
T22 construct: purchased ProQinase
Outline: as §1

[23] = molecular target: T23, LIMK1 (Homo sapiens, UniProt P53667); conditions: LIMK1, 1 µM; read-out: Residual Activity (%)
T23 construct: purchased ProQinase
Outline: as §1

[24] = molecular target: T24, EPHA1 (Homo sapiens, UniProt P21709); conditions: EPHA1, 1 µM; read-out: Residual Activity (%)
T24 construct: purchased ProQinase
Outline: as §1

[25] = molecular target: T25, CLK1 (Homo sapiens, UniProt P49759); conditions: CLK1, 1 µM; read-out: Residual Activity (%)
T25 construct: purchased ProQinase
Outline: as §1

[26] = molecular target: T26, GRK7 (Homo sapiens, UniProt Q8WTQ7); conditions: GRK7, 1 µM; read-out: Residual Activity (%)
T26 construct: purchased ProQinase
Outline: as §1

[27] = molecular target: T27, MARK4 (Homo sapiens, UniProt Q96L34); conditions: MARK4, 1 µM; read-out: Residual Activity (%)
T27 construct: purchased ProQinase
Outline: as §1

T14 sequence (P11802 whole entry): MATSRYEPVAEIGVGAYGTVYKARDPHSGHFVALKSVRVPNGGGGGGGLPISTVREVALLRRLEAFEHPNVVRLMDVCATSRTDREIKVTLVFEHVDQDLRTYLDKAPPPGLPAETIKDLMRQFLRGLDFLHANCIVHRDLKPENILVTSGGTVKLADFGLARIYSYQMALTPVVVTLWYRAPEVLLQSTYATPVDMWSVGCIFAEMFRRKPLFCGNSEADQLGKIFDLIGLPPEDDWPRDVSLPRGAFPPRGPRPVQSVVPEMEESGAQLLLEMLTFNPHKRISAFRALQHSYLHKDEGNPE
T14 sequence (P24385 whole entry partner): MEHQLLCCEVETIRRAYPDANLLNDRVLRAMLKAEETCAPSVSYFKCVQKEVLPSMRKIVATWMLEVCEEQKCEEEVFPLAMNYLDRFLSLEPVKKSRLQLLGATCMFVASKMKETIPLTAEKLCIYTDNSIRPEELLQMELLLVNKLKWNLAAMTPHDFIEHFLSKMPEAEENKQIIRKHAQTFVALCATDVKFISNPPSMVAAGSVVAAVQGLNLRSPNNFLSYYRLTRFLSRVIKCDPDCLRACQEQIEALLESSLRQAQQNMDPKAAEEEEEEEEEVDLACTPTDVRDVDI
T1 sequence (Q9UBS0 whole entry): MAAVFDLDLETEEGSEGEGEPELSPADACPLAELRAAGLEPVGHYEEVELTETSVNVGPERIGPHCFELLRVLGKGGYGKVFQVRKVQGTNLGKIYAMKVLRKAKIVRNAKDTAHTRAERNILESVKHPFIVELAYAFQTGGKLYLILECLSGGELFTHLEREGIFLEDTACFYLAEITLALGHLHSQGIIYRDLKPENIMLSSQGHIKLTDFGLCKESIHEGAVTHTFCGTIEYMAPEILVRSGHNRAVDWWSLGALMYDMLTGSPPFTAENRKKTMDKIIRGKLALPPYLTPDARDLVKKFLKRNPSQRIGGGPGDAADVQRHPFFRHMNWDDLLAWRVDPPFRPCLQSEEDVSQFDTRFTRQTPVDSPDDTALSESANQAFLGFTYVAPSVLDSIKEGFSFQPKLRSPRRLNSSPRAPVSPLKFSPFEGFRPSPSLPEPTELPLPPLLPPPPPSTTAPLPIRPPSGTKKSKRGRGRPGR
T15 sequence (Q8IU85 whole entry): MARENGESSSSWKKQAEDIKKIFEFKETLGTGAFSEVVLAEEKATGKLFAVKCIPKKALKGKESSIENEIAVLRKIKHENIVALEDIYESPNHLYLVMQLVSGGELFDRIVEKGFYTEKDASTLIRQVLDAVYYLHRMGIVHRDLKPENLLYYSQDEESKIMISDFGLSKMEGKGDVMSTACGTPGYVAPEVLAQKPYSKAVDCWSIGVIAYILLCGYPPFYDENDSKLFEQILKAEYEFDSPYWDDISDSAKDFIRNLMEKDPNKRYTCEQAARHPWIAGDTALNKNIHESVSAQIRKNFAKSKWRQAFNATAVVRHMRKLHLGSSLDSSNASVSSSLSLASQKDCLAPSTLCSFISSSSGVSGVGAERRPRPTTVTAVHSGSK
T6 sequence (Q8TD08 whole entry): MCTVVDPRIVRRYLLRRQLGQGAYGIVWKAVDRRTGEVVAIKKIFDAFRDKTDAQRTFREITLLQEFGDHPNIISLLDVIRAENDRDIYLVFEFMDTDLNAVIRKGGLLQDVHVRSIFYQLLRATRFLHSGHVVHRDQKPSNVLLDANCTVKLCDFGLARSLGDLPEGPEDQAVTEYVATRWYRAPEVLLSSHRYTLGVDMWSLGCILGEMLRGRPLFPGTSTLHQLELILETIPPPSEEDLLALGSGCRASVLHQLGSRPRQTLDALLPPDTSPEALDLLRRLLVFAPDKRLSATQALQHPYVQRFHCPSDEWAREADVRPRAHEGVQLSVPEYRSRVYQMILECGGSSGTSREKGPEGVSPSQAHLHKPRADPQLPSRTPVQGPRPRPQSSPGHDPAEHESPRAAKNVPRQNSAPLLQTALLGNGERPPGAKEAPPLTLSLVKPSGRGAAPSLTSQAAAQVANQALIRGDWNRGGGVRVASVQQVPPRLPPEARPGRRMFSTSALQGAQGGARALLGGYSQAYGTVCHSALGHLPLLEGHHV
T7 sequence (Q9BYP7 whole entry): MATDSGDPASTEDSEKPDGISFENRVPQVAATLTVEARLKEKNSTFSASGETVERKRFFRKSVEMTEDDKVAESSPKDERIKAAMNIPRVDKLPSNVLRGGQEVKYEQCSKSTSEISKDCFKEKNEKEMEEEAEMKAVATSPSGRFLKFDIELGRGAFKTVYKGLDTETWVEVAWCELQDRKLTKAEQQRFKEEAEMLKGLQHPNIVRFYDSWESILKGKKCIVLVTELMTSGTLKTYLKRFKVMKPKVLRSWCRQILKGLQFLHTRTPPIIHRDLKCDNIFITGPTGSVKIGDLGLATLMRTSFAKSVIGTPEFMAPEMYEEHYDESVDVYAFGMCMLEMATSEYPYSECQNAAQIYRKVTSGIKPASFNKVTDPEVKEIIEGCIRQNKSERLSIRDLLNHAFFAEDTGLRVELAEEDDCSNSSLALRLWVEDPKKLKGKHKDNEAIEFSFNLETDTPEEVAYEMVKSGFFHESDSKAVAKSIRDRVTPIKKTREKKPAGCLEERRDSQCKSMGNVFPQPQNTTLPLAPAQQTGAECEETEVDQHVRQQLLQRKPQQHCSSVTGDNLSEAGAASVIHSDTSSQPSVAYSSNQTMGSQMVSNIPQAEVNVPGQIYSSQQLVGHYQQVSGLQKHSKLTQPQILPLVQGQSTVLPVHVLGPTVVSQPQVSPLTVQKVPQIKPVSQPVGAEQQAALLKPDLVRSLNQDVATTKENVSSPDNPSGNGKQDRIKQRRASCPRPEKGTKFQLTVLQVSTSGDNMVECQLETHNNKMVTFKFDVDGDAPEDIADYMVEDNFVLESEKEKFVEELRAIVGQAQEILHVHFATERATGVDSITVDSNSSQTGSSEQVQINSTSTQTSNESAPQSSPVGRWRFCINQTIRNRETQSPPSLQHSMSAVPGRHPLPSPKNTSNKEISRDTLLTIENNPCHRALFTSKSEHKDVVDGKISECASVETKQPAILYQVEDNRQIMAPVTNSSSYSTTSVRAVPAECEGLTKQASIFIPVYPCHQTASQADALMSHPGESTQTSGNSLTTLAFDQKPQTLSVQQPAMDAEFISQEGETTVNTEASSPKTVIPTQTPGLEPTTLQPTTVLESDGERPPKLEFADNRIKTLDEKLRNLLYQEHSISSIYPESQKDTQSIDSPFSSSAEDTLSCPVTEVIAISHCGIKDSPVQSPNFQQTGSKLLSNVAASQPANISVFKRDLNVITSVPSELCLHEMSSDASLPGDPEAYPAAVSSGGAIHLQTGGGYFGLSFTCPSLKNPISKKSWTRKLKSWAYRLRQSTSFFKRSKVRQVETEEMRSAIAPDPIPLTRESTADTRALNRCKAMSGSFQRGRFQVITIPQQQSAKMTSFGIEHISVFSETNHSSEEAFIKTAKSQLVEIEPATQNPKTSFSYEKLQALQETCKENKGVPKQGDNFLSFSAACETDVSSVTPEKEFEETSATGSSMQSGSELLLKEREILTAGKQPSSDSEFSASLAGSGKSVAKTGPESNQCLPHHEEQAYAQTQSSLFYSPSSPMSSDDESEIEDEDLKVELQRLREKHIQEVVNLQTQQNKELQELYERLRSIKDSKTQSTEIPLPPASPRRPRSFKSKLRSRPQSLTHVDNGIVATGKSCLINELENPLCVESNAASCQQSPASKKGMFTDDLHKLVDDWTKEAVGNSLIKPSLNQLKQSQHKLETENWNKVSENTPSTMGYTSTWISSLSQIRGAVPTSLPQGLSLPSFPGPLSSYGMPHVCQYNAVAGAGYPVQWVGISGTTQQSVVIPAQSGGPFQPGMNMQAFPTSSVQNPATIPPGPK
T11 sequence (Q9P286 whole entry): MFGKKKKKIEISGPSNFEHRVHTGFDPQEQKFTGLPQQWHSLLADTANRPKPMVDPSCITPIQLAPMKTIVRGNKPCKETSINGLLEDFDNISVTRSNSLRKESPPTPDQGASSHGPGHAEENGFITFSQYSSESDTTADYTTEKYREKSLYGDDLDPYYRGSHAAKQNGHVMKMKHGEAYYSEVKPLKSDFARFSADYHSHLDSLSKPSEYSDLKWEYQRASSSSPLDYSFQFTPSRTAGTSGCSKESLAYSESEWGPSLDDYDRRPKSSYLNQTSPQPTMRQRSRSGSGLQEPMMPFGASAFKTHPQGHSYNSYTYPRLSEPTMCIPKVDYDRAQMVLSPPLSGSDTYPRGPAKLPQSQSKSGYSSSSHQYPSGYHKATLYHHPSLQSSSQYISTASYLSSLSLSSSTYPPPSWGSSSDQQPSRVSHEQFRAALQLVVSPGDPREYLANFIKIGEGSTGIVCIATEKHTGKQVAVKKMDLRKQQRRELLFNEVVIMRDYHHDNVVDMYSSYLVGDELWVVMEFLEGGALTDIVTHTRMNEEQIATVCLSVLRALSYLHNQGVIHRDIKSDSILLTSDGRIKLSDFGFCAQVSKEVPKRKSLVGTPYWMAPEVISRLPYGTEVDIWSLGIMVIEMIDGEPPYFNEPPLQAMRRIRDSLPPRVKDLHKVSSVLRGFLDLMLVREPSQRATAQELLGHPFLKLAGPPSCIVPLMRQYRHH
T18 sequence (Q9BYT3 whole entry): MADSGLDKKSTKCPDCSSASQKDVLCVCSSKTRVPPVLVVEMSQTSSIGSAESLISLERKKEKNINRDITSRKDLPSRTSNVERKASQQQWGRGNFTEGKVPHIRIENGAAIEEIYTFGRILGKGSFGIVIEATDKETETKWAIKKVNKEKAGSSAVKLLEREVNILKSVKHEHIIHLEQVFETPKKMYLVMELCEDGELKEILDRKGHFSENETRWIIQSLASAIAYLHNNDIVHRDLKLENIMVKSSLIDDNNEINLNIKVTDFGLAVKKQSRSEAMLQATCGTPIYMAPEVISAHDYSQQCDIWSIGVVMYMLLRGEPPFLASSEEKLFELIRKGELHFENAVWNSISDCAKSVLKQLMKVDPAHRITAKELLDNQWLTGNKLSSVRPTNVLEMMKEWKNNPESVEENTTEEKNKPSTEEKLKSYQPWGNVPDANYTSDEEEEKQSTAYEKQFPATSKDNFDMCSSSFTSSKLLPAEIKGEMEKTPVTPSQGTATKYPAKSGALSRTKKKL

COc1ccc(-c2cc(C(=O)Nc3cc(-c4c(-c5ccc(F)cc5)noc4C(C)C)ccn3)n(CC3NCC(O)C3O)c2)cc1 (stereo not drawn) [29d]
remaining activity at 1 µM [1]: 96%
remaining activity at 1 µM [2]: 132%
remaining activity at 1 µM [3]: 86%
remaining activity at 1 µM [4]: 89%
remaining activity at 1 µM [5]: 104%
remaining activity at 1 µM [6]: 102%
remaining activity at 1 µM [7]: 103%
remaining activity at 1 µM [8]: 105%
remaining activity at 1 µM [9]: 92%
remaining activity at 1 µM [10]: 116%
remaining activity at 1 µM [11]: 97%
remaining activity at 1 µM [12]: 92%
remaining activity at 1 µM [13]: 102%
remaining activity at 1 µM [14]: 108%
remaining activity at 1 µM [15]: 89%
remaining activity at 1 µM [16]: 89%
remaining activity at 1 µM [17]: 104%
remaining activity at 1 µM [18]: 84%
remaining activity at 1 µM [19]: 103%
remaining activity at 1 µM [20]: 69%
remaining activity at 1 µM [21]: 108%
remaining activity at 1 µM [22]: 89%
remaining activity at 1 µM [23]: 105%
remaining activity at 1 µM [24]: 120%
remaining activity at 1 µM [25]: 97%
remaining activity at 1 µM [26]: 107%
remaining activity at 1 µM [27]: 112%
